Measured values published in patent US20160025753A1, “ASSAY FOR CANNABINOIDS AND METHODS OF USE THEREOF” (priority 2014, published 2016).
“And” between values parts separate entries of the source, which are not always exact repeats. Identical values can stand only once. Like-named read-outs stand apart in the source and are kept apart here.

What was measured:
[1] = biological target: T1, human cannabinoid receptor 1 membrane preparation (Homo sapiens, UniProt P21554); type: binding
T1 construct: purchased EMD Millipore

[2] = biological target: T2, CB1 human recombinant protein (Homo sapiens, UniProt P21554); assay: Heterogeneous competitive plate assay, Δ9-THC conjugate coated 96-well plate, anti-CB1 antibody/HRP detection (Example 3)
[3] = biological target: T2, CB1 human recombinant protein; type: binding; parameters: purchased Abnova
CB2 receptors = CB2 receptors (Homo sapiens, UniProt P34972); settings: background statement; cited from earlier work
Chain of CB2 receptors (P34972 whole entry): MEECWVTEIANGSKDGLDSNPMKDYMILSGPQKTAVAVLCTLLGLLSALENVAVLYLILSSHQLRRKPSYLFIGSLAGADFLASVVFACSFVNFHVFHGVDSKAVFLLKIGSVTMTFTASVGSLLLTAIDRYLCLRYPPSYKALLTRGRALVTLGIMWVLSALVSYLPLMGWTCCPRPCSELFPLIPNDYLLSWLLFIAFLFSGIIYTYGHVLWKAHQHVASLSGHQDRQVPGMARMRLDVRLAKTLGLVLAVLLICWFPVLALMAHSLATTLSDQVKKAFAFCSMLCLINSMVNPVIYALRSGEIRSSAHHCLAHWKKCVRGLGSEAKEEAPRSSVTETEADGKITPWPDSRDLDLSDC

T2 sequence (P21554 whole entry): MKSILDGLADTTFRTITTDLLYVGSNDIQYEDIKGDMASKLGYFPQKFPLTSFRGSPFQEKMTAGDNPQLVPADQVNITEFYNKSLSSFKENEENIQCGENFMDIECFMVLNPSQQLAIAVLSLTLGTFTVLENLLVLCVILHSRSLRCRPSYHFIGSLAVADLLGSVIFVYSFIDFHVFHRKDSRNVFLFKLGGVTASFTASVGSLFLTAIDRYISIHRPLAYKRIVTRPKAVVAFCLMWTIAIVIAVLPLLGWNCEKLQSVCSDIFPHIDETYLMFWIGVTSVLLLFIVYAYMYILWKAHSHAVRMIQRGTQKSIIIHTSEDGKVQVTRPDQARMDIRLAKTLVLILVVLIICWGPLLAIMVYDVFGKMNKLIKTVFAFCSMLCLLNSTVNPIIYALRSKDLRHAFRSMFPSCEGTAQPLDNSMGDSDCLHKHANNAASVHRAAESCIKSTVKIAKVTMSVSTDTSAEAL
T1 sequence (P21554 whole entry): as above

SMILES: CCCCCCCC(C)(C)c1ccc([C@H]2CCC[C@@H](O)C2)c(O)c1 [Cannabicyclohexanol]
- Relative Fluorescent Units (RFU) ([1]; 1 μg/mL sample, excitation 535 nm, emission 610 nm, no cannabinoids 47,934): 20,667 RFU
- Detection by the assay (in words) ([1]; 1 μg/mL solution of each): comparable response

SMILES: CCCCCCC(C)(C)c1cc(O)c2c(c1)OC(C)(C)[C@@H]1CC=C(CO)C[C@@H]21 [HU-210]
- Detection by the assay (in words) [1]: comparable response
- Relative Fluorescent Units (RFU) [1]: 21,014 RFU
- Inhibition of absorbance at 450 nm (in words) ([2]; sample containing 100 ng/ml): significant inhibition of absorbance
- Average Absorbance @ 450 nm ([2]; with 100 ng/mL HU-210, average of 6 replicates, no cannabinoid blank 2.279): 1.480
- Absorbance @ 450 nm ([2]; with 100 ng/mL HU-210, single replicates, no cannabinoid blank average 2.279): 1.435 and 1.480 and 1.416 and 1.602 and 1.379 and 1.569

SMILES: CCCCCn1cc(C(=O)c2cccc3ccccc23)c2cc(O)ccc21 [JWH-018 5-hydroxyindole metabolite]
- Signal inhibition (relative absorbance at 450 nm) ([3]; 100 ng/mL test sample, FIG. 8): showed less signal inhibition

SMILES: CCCCCn1cc(C(=O)c2cccc3ccccc23)c2ccccc21 [JWH-018]
- Detection by the assay (in words) [1]: comparable response
- Relative Fluorescent Units (RFU) [1]: 22,299 RFU
- Signal inhibition (relative absorbance at 450 nm) [3]: demonstrated signal inhibition

SMILES: C=C(C)[C@@H]1CCC(C)=C[C@H]1c1c(O)cc(CCCCC)cc1O [cannabidiol, Cannabidiol]
- Affinity for CB2 receptors (CB2 receptors): low affinity
